# Patent US7659289B2, “Hydroxyethylene-based β-secretase inhibitors and use thereof” (CoMentis, Inc., priority 2004, dated 2010)
# Columns and labels:
# [1] = biological target: memapsin 2 (Homo sapiens, UniProt P56817); assay: Inhibition of memapsin 2 beta-secretase activity toward fluorogenic substrate FS-2; type: biochemical; details: pH 4, 37° C., 20 minutes pre-incubation, fluorogenic substrate FS-2, tight-binding model; read-out: M2 Ki
# [2] = biological target: Cathepsin D (Homo sapiens, UniProt P07339); assay: Inhibition of cathepsin D activity (MALDI-TOF, substrate peptide […]); type: biochemical; details: pH 4.1, 37 degrees C., read-out: Cath D Ki
# Cathepsin D, sequence (P07339 65-412, species assumed): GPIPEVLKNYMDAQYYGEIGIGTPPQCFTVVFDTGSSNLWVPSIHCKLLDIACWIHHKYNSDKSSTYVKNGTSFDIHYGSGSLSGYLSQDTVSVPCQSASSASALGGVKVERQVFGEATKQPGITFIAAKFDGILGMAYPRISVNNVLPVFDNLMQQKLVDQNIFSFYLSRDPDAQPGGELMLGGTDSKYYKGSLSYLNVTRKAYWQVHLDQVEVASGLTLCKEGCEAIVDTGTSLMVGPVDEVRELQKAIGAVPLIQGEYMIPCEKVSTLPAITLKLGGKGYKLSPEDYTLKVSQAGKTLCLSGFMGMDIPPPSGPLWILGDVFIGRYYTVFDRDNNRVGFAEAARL
# memapsin 2, sequence (P56817 46-501): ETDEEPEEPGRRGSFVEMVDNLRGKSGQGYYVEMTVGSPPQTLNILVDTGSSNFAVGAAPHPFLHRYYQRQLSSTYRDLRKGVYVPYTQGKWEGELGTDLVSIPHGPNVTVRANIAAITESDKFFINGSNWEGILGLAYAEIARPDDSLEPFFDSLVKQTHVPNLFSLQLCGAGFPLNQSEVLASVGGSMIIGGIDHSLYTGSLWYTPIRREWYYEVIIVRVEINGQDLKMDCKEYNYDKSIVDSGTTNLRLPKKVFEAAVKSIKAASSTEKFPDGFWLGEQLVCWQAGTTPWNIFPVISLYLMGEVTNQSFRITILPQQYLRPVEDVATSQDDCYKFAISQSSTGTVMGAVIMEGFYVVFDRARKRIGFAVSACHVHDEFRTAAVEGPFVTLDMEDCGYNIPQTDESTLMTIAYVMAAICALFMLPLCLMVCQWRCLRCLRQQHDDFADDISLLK
SMILES,Ki [1] [nM],Ki [2] [nM]
"Cc1nc(COC(=O)N[C@@H](CC(=O)N(C)C)C(=O)N[C@@H](CC(C)C)[C@@H](O)C[C@@H](C)C(=O)N[C@H](C(=O)NCC(C)C)C(C)C)c(C)o1 [(2,5-dimethyloxazol-4-yl)methyl (5S,8S,9S,11R,14S)-9-hydroxy-8-isobutyl-14-isopropyl-2,11,18-trimethyl-3,6,12,15-tetraoxo-2,7,13,16-tetraazanonadecan-5-ylcarbamate]",100 to 600,–
"Cc1nc(COC(=O)N[C@@H](CC(=O)NCc2ccncc2)C(=O)N[C@@H](CC(C)C)[C@@H](O)C[C@@H](C)C(=O)N[C@H](C(=O)NCC(C)C)C(C)C)c(C)o1 [(2,5-dimethyloxazol-4-yl)methyl (5S,8S,9S,11R,14S)-9-hydroxy-8-isobutyl-14-isopropyl-11,18-dimethyl-3,6,12,15-tetraoxo-1-(pyridin-4-yl)-2,7,13,16-tetraazanonadecan-5-ylcarbamate]",100 to 600,< 100
"Cc1nc(COC(=O)N[C@@H](CC(N)=O)C(=O)N[C@@H](CC(C)C)[C@@H](O)C[C@@H](C)C(=O)N[C@H](C(=O)NCC(C)C)C(C)C)c(C)o1 [(2,5-dimethyloxazol-4-yl)methyl (S)-4-amino-1-((4S,5S,7R)-5-hydroxy-8-((S)-1-(isobutylamino)-3-methyl-1-oxobutan-2-ylamino)-2,7-dimethyl-8-oxooctan-4-ylamino)-1,4-dioxobutan-2-ylcarbamate]",100 to 600,< 100
"CC(=O)NC[C@H](NC(=O)OCc1nc(C)cs1)C(=O)N[C@@H](CC(C)C)[C@@H](O)C[C@@H](C)C(=O)N[C@H](C(=O)NCC(C)C)C(C)C [(4-methylthiazol-2-yl)methyl (5S,8S,9S,11R,14S)-9-hydroxy-8-isobutyl-14-isopropyl-11,18-dimethyl-2,6,12,15-tetraoxo-3,7,13,16-tetraazanonadecan-5-yicarbamate]",100 to 600,100 to 600
"Cc1csc(COC(=O)N[C@@H](CC(N)=O)C(=O)N[C@@H](CC(C)C)[C@@H](O)C[C@@H](C)C(=O)N[C@H](C(=O)NCC(C)C)C(C)C)n1 [(4-methylthiazol-2-yl)methyl (S)-4-amino-1-((4S,5S,7R)-5-hydroxy-8-((S)-1-(isobutylamino)-3-methyl-1-oxobutan2-ylamino)-2,7-dimethyl-8-oxooctan-4-ylamino)-1,4-dioxobutan-2-ylcarbamate]",100 to 600,> 600
"COCCOCCOC(=O)C[C@H](NC(=O)OCc1nc(C)oc1C)C(=O)N[C@@H](CC(C)C)[C@@H](O)C[C@@H](C)C(=O)N[C@H](C(=O)NCC(C)C)C(C)C [(S)-2-(2-methoxyethoxy)ethyl 3-(((2,5-dimethyloxazol-4-yl)methoxy)carbonylamino)-4-((4S,5S,7R)-5-hydroxy-8-((S)-1-(isobutylamino)-3-methyl-1-oxobutan-2-ylamino)2,7-dimethyl-8-oxooctan-4-ylamino)-4-oxobutanoate]",< 100,< 100
"Cc1cc(C)n(CCC(=O)N[C@@H](CC(N)=O)C(=O)N[C@@H](CC(C)C)[C@@H](O)C[C@@H](C)C(=O)NC(C)(C)C(=O)NCC(C)C)n1 [(S)-2-(3-(3,5-dimethyl-1H-pyrazol-1-yl)propanamido)-N1-((4S,5S,7R)-5-hydroxy-8-(1-(isobutylamino)-2-methyl-1-oxopropan-2-ylamino)-2,7-dimethyl-8-oxooctan-4-yl)succinamide]",> 600,–
"Cc1cc(C)n(CCC(=O)N[C@@H](CC(N)=O)C(=O)N[C@@H](CC(C)C)[C@@H](O)C[C@@H](C)C(=O)NC2(C(=O)NCC(C)C)CCCC2)n1 [(S)-2-(3-(3,5-dimethyl-1H-pyrazol-1-yl)propanamido)-N1-((4S,5S,7R)-5-hydroxy-8-(1-(isobutylcarbamoyl)cyclopentylamino)-2,7-dimethyl-8-oxooctan-4-yl)succinamide]",> 600,–
"Cc1nc(COC(=O)N[C@@H](CC(=O)O)C(=O)N[C@@H](CC(C)C)[C@@H](O)C[C@@H](C)C(=O)N[C@H](C(=O)NCC(C)C)C(C)C)c(C)o1 [(S)-3-(((2,5-dimethyloxazol-4-yl)methoxy)carbonylamino)-4-((4S,5S,7R)-5-hydroxy-8-((S)-1-(isobutylamino)-3-methyl-1-oxobutan-2-ylamino)2,7-dimethyl-8-oxooctan-4-ylamino)-4-oxobutanoic acid]",100 to 600,< 100
"CCNC(=O)C[C@H](NC(=O)[C@@H](C)Cc1nc(C)cs1)C(=O)N[C@@H](CC(C)C)[C@@H](O)C[C@@H](C)C(=O)N[C@H](C(=O)NCC(C)C)C(C)C [(S)-N4-ethyl-N1-((4S,5S,7R)-5-hydroxy-8-((S)-1-(isobutylamino)-3-methyl-1-oxobutan-2-ylamino)-2,7-dimethyl-8-oxooctan-4-yl)-2-((S)-2-methyl-3-(4-methylthiazol-2-yl)propanamido)succinamide]",< 100,–
"Cc1cc(C)n(CCC(=O)N[C@@H](CC(=O)OCc2ccccc2)C(=O)N[C@@H](CC(C)C)[C@@H](O)C[C@@H](C)C(=O)N[C@H](C(=O)NCC(C)C)C(C)C)n1 [(S)-benzyl 3-(3-(3,5-dimethyl-1H-pyrazol-1-yl)propanamido)-4-((4S,5S,7R)-5-hydroxy-8-((S)-1-(isobutylamino)-3-methyl-1-oxobutan-2-ylamino)-2,7-dimethyl-8-oxooctan-4-ylamino)-4-oxobutanoate]",< 100,–
"CC[C@H](Cc1nc(C)cs1)C(=O)N[C@@H](CNC(=O)OC(C)(C)C)C(=O)N[C@@H](CC(C)C)[C@@H](O)C[C@@H](C)C(=O)N[C@H](C(=O)NCC(C)C)C(C)C [tert-butyl (S)-3-((4S,5S,7R)-5-hydroxy-8-((S)-1-(isobutylamino)-3-methyl-1-oxobutan-2-ylamino)-2,7-dimethyl-8-oxooctan-4-ylamino)-2-((R)-2-((4-methylthiazol-2-yl)methyl)butanamido)-3-oxopropylcarbamate]",> 600,–

# Second part, the compound after the results:
Ki [1] [nM],Ki [2] [nM],SMILES
100 to 600,–,"Cc1cc(C)n(CC(C)C(=O)N[C@@H](CC(N)=O)C(=O)N[C@@H](CC(C)C)[C@@H](O)C[C@@H](C)C(=O)N[C@H](C(=O)NCC(C)C)C(C)C)n1 (stereo partly drawn) [(2S)-2-(3-(3,5-dimethyl-1H-pyrazol-1-yl)-2-methylpropanamido)-N1-((4S,5S,7R)-5-hydroxy-8-((S)-1-(isobutylamino)-3-methyl-1-oxobutan-2-ylamino)-2,7-dimethyl-8-oxooctan-4-yl)succinamide]"
> 600,–,"Cc1cc(C)n(CCC(=O)N[C@@H](CC(N)=O)C(=O)N[C@@H](CC(C)C)[C@@H](O)C[C@@H](C)C(=O)NC(CO)C(=O)NCC(C)C)n1 (stereo partly drawn) [(2S)-2-(3-(3,5-dimethyl-1H-pyrazol-1-yl)propanamido)-N1-((4S,5S,7R)-5-hydroxy-8-(3-hydroxy-1-(isobutylamino)-1-oxopropan-2-ylamino)-2,7-dimethyl-8-oxooctan-4-yl)succinamide]"
100 to 600,< 100,"Cc1cc(C)n(CCC(=O)N[C@@H](CC(N)=O)C(=O)N[C@@H](CC(C)C)[C@@H](O)C[C@@H](C)C(=O)N[C@H](C(=O)NCC(C)C)C(C)C)n1 [(S)-2-(3-(3,5-dimethyl-1H-pyrazol-1-yl)propanamido)-N1-((4S,5S,7R)-5-hydroxy-8-((S)-1-(isobutylamino)-3-methyl-1-oxobutan-2-ylamino)-2,7-dimethyl-8-oxooctan-4-yl)succinamide]"
> 600,–,"COCC[C@H](NC(=O)[C@H](C)C[C@H](O)[C@H](CC(C)C)NC(=O)[C@H](CC(N)=O)NC(=O)CCn1nc(C)cc1C)C(=O)NCC(C)C [(S)-2-(3-(3,5-dimethyl-1H-pyrazol-1-yl)propanamido)-N1-((4S,5S,7R)-5-hydroxy-8-((S)-1-(isobutylamino)-4-methoxy-1-oxobutan-2-ylamino)-2,7-dimethyl-8-oxooctan-4-yl)succinamide]"
100 to 600,< 100,"CC[C@@H](Cn1nc(C)cc1C)C(=O)N[C@@H](CC(N)=O)C(=O)N[C@@H](CC(C)C)[C@@H](O)C[C@@H](C)C(=O)N[C@H](C(=O)NCC(C)C)C(C)C [(S)-2-((S)-2-((3,5-dimethyl-1H-pyrazol-1-yl)methyl)butanamido)-N1-((4S,5S,7R)-5-hydroxy-8-((S)-1-(isobutylamino)-3-methyl-1-oxobutan-2-ylamino)-2,7-dimethyl-8-oxooctan-4-yl)succinamide]"
100 to 600,–,"Cc1cc(C)n(CCC(=O)N[C@@H](CC(=O)O)C(=O)N[C@@H](CC(C)C)[C@@H](O)C[C@@H](C)C(=O)N[C@H](C(=O)NCC(C)C)C(C)C)n1 [(S)-3-(3-(3,5-dimethyl-1H-pyrazol-1-yl)propanamido)-4-((4S,5S,7R)-5-hydroxy-8-((S)-1-(isobutylamino)-3-methyl-1-oxobutan-2-ylamino)-2,7-dimethyl-8-oxooctan-4-ylamino)-4-oxobutanoic acid]"
100 to 600,100 to 600,"Cc1csc(C[C@H](C)C(=O)N[C@@H](CC(=O)O)C(=O)N[C@@H](CC(C)C)[C@@H](O)C[C@@H](C)C(=O)N[C@H](C(=O)NCC(C)C)C(C)C)n1 [(S)-4-((4S,5S,7R)-5-hydroxy-8-((S)-1-(isobutylamino)-3-methyl-1-oxobutan-2-ylamino)-2,7-dimethyl-8-oxooctan-4-ylamino)-3-((S)-2-methyl-3-(4-methylthiazol-2-yl)propanamido)-4-oxobutanoic acid]"
100 to 600,< 100,"Cc1csc(C[C@H](C)C(=O)N[C@@H](CC(N)=O)C(=O)N[C@@H](CC(C)C)[C@@H](O)C[C@@H](C)C(=O)N[C@H](C(=O)NCC(C)C)C(C)C)n1 [(S)-N1-((4S,5S,7R)-5-hydroxy-8-((S)-1-(isobutylamino)-3-methyl-1-oxobutan-2-ylamino)-2,7-dimethyl-8-oxooctan-4-yl)-2-((S)-2-methyl-3-(4-methylthiazol-2-yl)propanamido)succinamide]"
100 to 600,< 100,"Cc1csc(C[C@H](C)C(=O)N[C@@H](CC(=O)N(C)C)C(=O)N[C@@H](CC(C)C)[C@@H](O)C[C@@H](C)C(=O)N[C@H](C(=O)NCC(C)C)C(C)C)n1 [(S)-N1-((4S,5S,7R)-5-hydroxy-8-((S)-1-(isobutylamino)-3-methyl-1-oxobutan-2-ylamino)-2,7-dimethyl-8-oxooctan-4-yl)-N4,N4-dimethyl-2-((S)-2-methyl-3-(4-methylthiazol-2-yl)propanamido)succinamide]"
